# From publication PMC7070036, “An amber obligate active site-directed ligand evolution technique for phage display” (Nature Communications, 2020)
# Starred links: 1 amine or outer side, 2 acyl side, 3 side chain; linkers in the order of their positions; H or OH if unused. Non-standard residues stand in square brackets, D forms with d. Residues, ends and D or L forms follow the SMILES beside them. X1 = CCCC(=S)NCCCC[C@H](N[*:1])C(=O)[*:2]
# Legend:
# [1] = test system: amber-obligate phagemid library; assay: Phage yield on expression of the amber-obligate phagemid library with ncAAs (cfu assay); design: species or system E. coli Top10; conditions: BuKRS
# SIRT2 = biological target: T1, SIRT2 (Homo sapiens, UniProt Q8IXJ6); assay: Continuous fluorogenic sirtuin inhibition assay, SIRT2 (tBuK peptides, TB); type: biochemical
# T1 sequence (Q8IXJ6 1-389): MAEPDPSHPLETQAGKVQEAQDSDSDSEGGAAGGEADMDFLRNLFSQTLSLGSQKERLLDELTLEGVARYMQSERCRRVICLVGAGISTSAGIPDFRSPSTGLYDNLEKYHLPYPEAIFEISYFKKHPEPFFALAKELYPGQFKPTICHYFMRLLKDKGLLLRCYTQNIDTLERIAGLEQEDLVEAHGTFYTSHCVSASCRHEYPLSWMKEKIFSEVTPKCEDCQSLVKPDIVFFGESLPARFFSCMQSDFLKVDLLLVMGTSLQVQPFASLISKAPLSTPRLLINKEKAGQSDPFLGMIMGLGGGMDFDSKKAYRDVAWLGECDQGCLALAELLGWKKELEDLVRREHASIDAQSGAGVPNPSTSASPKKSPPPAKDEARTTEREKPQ
# Description: (§1) The continuous assay for comparing isoform specificity of S2P04 was performed using the universal fluorogenic sirtuin substrate described by Schuster et al.[41]. Briefly, the inhibition reactions were performed in 50-µL volumes at 37 °C in black, half-area, 96-well plates. The sirtuin enzyme (0.25 µM) was preincubated with different concentrations of the peptide S2P04 (0.0064–50 µM for SIRT1 and SIRT2, 0.5–100 µM for SIRT3) or TB (0.16–150 µM for SIRT1–SIRT3), and 1 mM NAD^+ in assay buffer (20 mM Tris, pH 7.8, 150 mM NaCl, 5 mM MgCl2, and 1 mM DTT) for 15 min. Following incubation, the reaction started with the addition of the fluorogenic substrate (5 µM), and product formation was monitored by measuring the fluorescence intensity every 20 s for 5 min (SIRT2) or 30 min (SIRT1 and SIRT3) in a BioTek Synergy H1 microplate reader at λex = 320 nm and λem = 408 nm (gain = 130 and read height = 7 mm). Initial rates of product formation were determined by a linear regression of the plot of fluorescence intensity vs. time and normalized relative to 0% (max inhibitor) and 100% (no inhibitor) controls. The assay was repeated to determine the IC50 values of all BuK peptides for SIRT2. IC50 values were determined by nonlinear regression of the plot of the normalized initial rate vs. inhibitor concentration using GraphPad Prism. The determined IC50 values are provided in Supplementary Table 2, and inhibition curves can be seen in Supplementary Fig. 20.
# SIRT1 = biological target: T2, SIRT1 (Homo sapiens, UniProt Q96EB6); assay: Continuous fluorogenic sirtuin inhibition assay, SIRT1; type: biochemical
# T2 sequence (Q96EB6 1-747): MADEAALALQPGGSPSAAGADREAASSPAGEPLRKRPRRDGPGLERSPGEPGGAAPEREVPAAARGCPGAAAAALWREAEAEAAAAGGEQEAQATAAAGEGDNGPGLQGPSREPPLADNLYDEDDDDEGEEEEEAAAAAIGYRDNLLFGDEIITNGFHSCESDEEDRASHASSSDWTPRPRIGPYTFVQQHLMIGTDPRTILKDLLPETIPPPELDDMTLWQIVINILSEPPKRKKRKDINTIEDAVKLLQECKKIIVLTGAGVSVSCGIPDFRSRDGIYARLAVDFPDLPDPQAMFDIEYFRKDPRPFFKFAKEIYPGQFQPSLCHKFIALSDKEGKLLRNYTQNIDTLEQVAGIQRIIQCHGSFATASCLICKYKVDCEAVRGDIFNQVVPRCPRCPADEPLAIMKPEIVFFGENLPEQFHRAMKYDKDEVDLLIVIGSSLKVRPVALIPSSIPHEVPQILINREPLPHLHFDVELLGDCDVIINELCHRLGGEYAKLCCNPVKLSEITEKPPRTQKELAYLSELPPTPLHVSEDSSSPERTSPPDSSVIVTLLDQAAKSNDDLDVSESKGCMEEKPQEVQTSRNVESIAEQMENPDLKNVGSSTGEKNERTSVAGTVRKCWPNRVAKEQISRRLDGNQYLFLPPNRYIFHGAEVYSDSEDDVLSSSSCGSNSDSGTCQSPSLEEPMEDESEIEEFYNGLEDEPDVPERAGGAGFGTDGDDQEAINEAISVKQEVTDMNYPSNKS
# Description: as §1
# SIRT3 = biological target: T3, SIRT3 (Homo sapiens, UniProt Q9NTG7); assay: Continuous fluorogenic sirtuin inhibition assay, SIRT3; type: biochemical
# T3 sequence (Q9NTG7 1-399): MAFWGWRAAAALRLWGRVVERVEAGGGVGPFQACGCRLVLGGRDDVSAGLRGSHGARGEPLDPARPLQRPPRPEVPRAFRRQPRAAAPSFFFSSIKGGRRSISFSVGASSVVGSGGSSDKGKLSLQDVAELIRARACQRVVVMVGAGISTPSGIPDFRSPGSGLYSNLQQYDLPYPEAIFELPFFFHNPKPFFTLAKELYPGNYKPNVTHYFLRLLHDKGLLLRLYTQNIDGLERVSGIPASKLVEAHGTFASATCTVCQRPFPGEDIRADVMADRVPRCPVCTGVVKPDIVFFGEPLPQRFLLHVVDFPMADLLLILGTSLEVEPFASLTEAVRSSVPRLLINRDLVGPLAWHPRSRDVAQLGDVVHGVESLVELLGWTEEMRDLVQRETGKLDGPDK
# Description: as §1
# [2] = mean ± SD of two independent experiments
smiles,measurement,setting,value
"C/C=C/C(=O)NCCCC[C@H](N)C(=O)O [compound 6, N^Ɛ-crotonyl-L-lysine]",fold increase in particle yield vs no ncAA,[1],~100 fold
same,"Phage Yields, ncAA","[1]; Fig. 4e, single trials",3.00E+09 CFU/mL
CCCC(=S)NCCCC[C@H](NC(=O)[C@@H](NC(=O)[C@@H](NC(=O)[C@H](CS)NC(=O)[C@@H](N)[C@@H](C)O)[C@@H](C)O)C(C)C)C(=O)N[C@H](C(=O)NCC(N)=O)[C@@H](C)CC [S2P04-tBuK] (H-TCTV[X1]IG-NH2),remaining activity at 0.0064 µM,"SIRT2; inhibitor 0.0064 µM, read-out: Normalized Activity, SIRT2",94.8%
same,activity at 0.0064 µM,"SIRT2; inhibitor 0.0064 µM, single trials",85.9%
same,"%Activity, SIRT2","SIRT2; inhibitor 0.0064 µM, single trials, 0.0064 µM",94.59%
same,remaining activity at 0.032 µM,"SIRT2; inhibitor 0.032 µM, read-out: Normalized Activity, SIRT2",85.2%
same,activity at 0.032 µM,"SIRT2; inhibitor 0.032 µM, single trials",77.2%
same,"%Activity, SIRT2","SIRT2; inhibitor 0.032 µM, single trials, 0.032 µM",83.831%
same,remaining activity at 0.5 µM,"SIRT2; inhibitor 0.5 µM, read-out: Normalized Activity, SIRT2",5.68%
same,activity at 0.5 µM,"SIRT2; inhibitor 0.5 µM, single trials",5.65%
same,"%Activity, SIRT2","SIRT2; inhibitor 0.5 µM, single trials, 0.5 µM",6.5384%
same,remaining activity at 1 µM,"SIRT2; inhibitor 1 µM, read-out: Normalized Activity, SIRT2",3.34%
same,activity at 1 µM,"SIRT2; inhibitor 1 µM, single trials",3.54%
same,"%Activity, SIRT2","SIRT2; inhibitor 1 µM, single trials, 1 µM",4.6849%
same,remaining activity at 2 µM,"SIRT2; inhibitor 2 µM, read-out: Normalized Activity, SIRT2",3.21%
same,activity at 2 µM,"SIRT2; inhibitor 2 µM, single trials",3.42%
same,"%Activity, SIRT2","SIRT2; inhibitor 2 µM, single trials, 2 µM",4.4288%
same,remaining activity at 4 µM,"SIRT2; inhibitor 4 µM, read-out: Normalized Activity, SIRT2",2.33%
same,activity at 4 µM,"SIRT2; inhibitor 4 µM, single trials",2.63%
same,"%Activity, SIRT2","SIRT2; inhibitor 4 µM, single trials, 4 µM",3.5157%
same,remaining activity at 50 µM,"SIRT2; inhibitor 50 µM, read-out: Normalized Activity, SIRT2",0%
same,activity at 50 µM,"SIRT2; inhibitor 50 µM, single trials",0.535%
same,"%Activity, SIRT2","SIRT2; inhibitor 50 µM, single trials, 50 µM",1.0081%
same,IC50,"SIRT2; mean ± SD of two independent experiments, read-out: IC50, SIRT2",92 ± 3 nM
same,remaining activity at 0.0064 µM,"SIRT1; inhibitor 0.0064 µM, read-out: Normalized Activity, SIRT1",92.8%
same,remaining activity at 0.032 µM,"SIRT1; inhibitor 0.032 µM, read-out: Normalized Activity, SIRT1",87.5%
same,remaining activity at 0.5 µM,"SIRT1; inhibitor 0.5 µM, read-out: Normalized Activity, SIRT1",26.2%
same,remaining activity at 2 µM,"SIRT1; inhibitor 2 µM, read-out: Normalized Activity, SIRT1",2.97%
same,remaining activity at 50 µM,"SIRT1; inhibitor 50 µM, read-out: Normalized Activity, SIRT1",0%
same,IC50,SIRT1; [2],250 ± 50 nM
same,remaining activity at 0.5 µM,"SIRT3; inhibitor 0.5 µM, read-out: Normalized Activity, SIRT3",98.2%
same,remaining activity at 1 µM,"SIRT3; inhibitor 1 µM, read-out: Normalized Activity, SIRT3",96.2%
same,remaining activity at 2 µM,"SIRT3; inhibitor 2 µM, read-out: Normalized Activity, SIRT3",103%
same,remaining activity at 4 µM,"SIRT3; inhibitor 4 µM, read-out: Normalized Activity, SIRT3",82.4%
same,remaining activity at 10 µM,"SIRT3; inhibitor 10 µM, read-out: Normalized Activity, SIRT3",59.8%
same,remaining activity at 25 µM,"SIRT3; inhibitor 25 µM, read-out: Normalized Activity, SIRT3",29.6%
same,remaining activity at 50 µM,"SIRT3; inhibitor 50 µM, read-out: Normalized Activity, SIRT3",9.72%
same,remaining activity at 100 µM,"SIRT3; inhibitor 100 µM, read-out: Normalized Activity, SIRT3",0%
same,IC50,SIRT3; [2],14000 ± 1000 nM
